System: recombinant NL4-3 virus (Renilla luciferase in nef, Gag P373S)
Test: HIV cell culture assay (luciferase reporter, MT-2 cells)
Format: cell-based, HIV-1
Conditions: Renilla, NL43, MT-2 cells infected for 4-5 days with NLRluc recombinants; luciferase activity; serial dilutions of inhibitor
How it was run: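 MT-2 cells infected with recombinant NL4-3 carrying Renilla luciferase in place of part of nef and Gag P373S, virus made by 293T transfection. Infection ran 4-5 days with serial inhibitor dilutions. Antiviral activity read as luciferase activity (Dual Luciferase reagents mixed with lysis buffer).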

Structure (SMILES) | EC50
CC(=O)[C@@H]1CC[C@]2(NCCN3CCS(=O)(=O)CC3)CC[C@]3(C)[C@H](CC[C@@H]4[C@@]5(C)CC=C(c6ccc(C(=O)O)cc6)C(C)(C)[C@@H]5CC[C@]43C)[C@@H]12 [Example B47, 4-((1R,3aS,5aR,5bR,7aR,11aS,11bR,13aR,13bS)-1-acetyl-3a-((2-(1,1-dioxidothiomorpholino)ethyl)amino)-5a,5b,8,8,11a-pentamethyl-2,3,3a,4,5,5a,5b,6,7,7a,8,11,11a,11b,12,13,13a,13b-octadecahydro-1H-cyclopenta[a]chrysen-9-yl)benzoic acid] | 10 nM
CC1([C@@H]2CC[C@]3(C(=O)O)CC[C@]4(C)[C@H](CC[C@@H]5[C@@]6(C)CC=C(c7ccc(C(=O)O)cc7)C(C)(C)[C@@H]6CC[C@]54C)[C@@H]23)CC1 [Example B48, (1R,3aS,5aR,5bR,7aR,11aS,11bR,13aR,13bR)-9-(4-carboxyphenyl)-5a,5b,8,8,11a-pentamethyl-1-(1-methylcyclopropyl)-2,3,3a,4,5,5a,5b,6,7,7a,8,11,11a,11b,12,13,13a,13b-octadecahydro-1H-cyclopenta[a]chrysene-3a-carboxylic acid] | 10 nM
CC1([C@@H]2CC[C@]3(N)CC[C@]4(C)[C@H](CC[C@@H]5[C@@]6(C)CC=C(c7ccc(C(=O)O)cc7)C(C)(C)[C@@H]6CC[C@]54C)[C@@H]23)CC1 [Example B49, 4-((1R,3aS,5aR,5bR,7aR,11aS,11bR,13aR,13bR)-3a-amino-5a,5b,8,8,11a-pentamethyl-1-(1-methylcyclopropyl)-2,3,3a,4,5,5a,5b,6,7,7a,8,11,11a,11b,12,13,13a,13b-octadecahydro-1H-cyclopenta[a]chrysen-9-yl)benzoic acid] | 0.985 nM
CN[C@]12CC[C@@H](C3(C)CC3)[C@@H]1[C@H]1CC[C@@H]3[C@@]4(C)CC=C(c5ccc(C(=O)O)cc5)C(C)(C)[C@@H]4CC[C@@]3(C)[C@]1(C)CC2 [Example B50, 4-((1R,3aS,5aR,5bR,7aR,11aS,11bR,13aR,13bR)-5a,5b,8,8,11a-pentamethyl-3a-(methylamino)-1-(1-methylcyclopropyl)-2,3,3a,4,5,5a,5b,6,7,7a,8,11,11a,11b,12,13,13a,13b-octadecahydro-1H-cyclopenta[a]chrysen-9-yl)benzoic acid] | 1.36 nM
CC1([C@@H]2CC[C@]3(NC(=O)CN4CCS(=O)(=O)CC4)CC[C@]4(C)[C@H](CC[C@@H]5[C@@]6(C)CC=C(c7ccc(C(=O)O)cc7)C(C)(C)[C@@H]6CC[C@]54C)[C@@H]23)CC1 [Example B51, 4-((1R,3aS,5aR,5bR,7aR,11aS,11bR,13aR,13bR)-3a-(2-(1,1-dioxidothiomorpholino)acetamido)-5a,5b,8,8,11a-pentamethyl-1-(1-methylcyclopropyl)-2,3,3a,4,5,5a,5b,6,7,7a,8,11,11a,11b,12,13,13a,13b-octadecahydro-1H-cyclopenta[a]chrysen-9-yl)benzoic acid] | 1.1 nM
CC1([C@@H]2CC[C@]3(NCCN4CCS(=O)(=O)CC4)CC[C@]4(C)[C@H](CC[C@@H]5[C@@]6(C)CC=C(c7ccc(C(=O)O)cc7)C(C)(C)[C@@H]6CC[C@]54C)[C@@H]23)CC1 [Example B52, 4-((1R,3aS,5aR,5bR,7aR,11aS,11bR,13aR,13bR)-3a-((2-(1,1-dioxidothiomorpholino)ethyl)amino)-5a,5b,8,8,11a-pentamethyl-1-(1-methylcyclopropyl)-2,3,3a,4,5,5a,5b,6,7,7a,8,11,11a,11b,12,13,13a,13b-octadecahydro-1H-cyclopenta[a]chrysen-9-yl)benzoic acid] | 0.924 nM
CC1([C@@H]2CC[C@]3(NCCN4CCC(S(C)(=O)=O)CC4)CC[C@]4(C)[C@H](CC[C@@H]5[C@@]6(C)CC=C(c7ccc(C(=O)O)cc7)C(C)(C)[C@@H]6CC[C@]54C)[C@@H]23)CC1 [Example B53, 4-((1R,3aS,5aR,5bR,7aR,11aS,11bR,13aR,13bR)-5a,5b,8,8,11a-pentamethyl-1-(1-methylcyclopropyl)-3a-(2-(4-(methylsulfonyl)piperidin-1-yl)ethylamino)-2,3,3a,4,5,5a,5b,6,7,7a,8,11,11a,11b,12,13,13a,13b-octadecahydro-1H-cyclopenta[a]chrysen-9-yl)benzoic acid] | 1.03 nM
CC1([C@@H]2CC[C@]3(N)CC[C@]4(C)[C@H](CC[C@@H]5[C@@]6(C)CC[C@H](c7ccc(C(=O)O)cc7)C(C)(C)[C@@H]6CC[C@]54C)[C@@H]23)CC1 [Example B54, 4-((1R,3aS,5aR,5bR,7aS,9S,11aS,11bR,13aR,13bR)-3a-amino-5a,5b,8,8,11a-pentamethyl-1-(1-methylcyclopropyl)icosahydro-1H-cyclopenta[a]chrysen-9-yl)benzoic acid] | 0.577 nM
CN[C@]12CC[C@@H](C3(C)CC3)[C@@H]1[C@H]1CC[C@@H]3[C@@]4(C)CC[C@H](c5ccc(C(=O)O)cc5)C(C)(C)[C@@H]4CC[C@@]3(C)[C@]1(C)CC2 [Example B55] | 1.51 nM
CC1([C@@H]2CC[C@]3(NCCN4CCN(S(C)(=O)=O)CC4)CC[C@]4(C)[C@H](CC[C@@H]5[C@@]6(C)CC=C(c7ccc(C(=O)O)cc7)C(C)(C)[C@@H]6CC[C@]54C)[C@@H]23)CC1 [Example B56, 4-((1R,3aS,5aR,5bR,7aR,11aS,11bR,13aR,13bR)-5a,5b,8,8,11a-pentamethyl-1-(1-methylcyclopropyl)-3a-(2-(4-(methylsulfonyl)piperazin-1-yl)ethylamino)-2,3,3a,4,5,5a,5b,6,7,7a,8,11,11a,11b,12,13,13a,13b-octadecahydro-1H-cyclopenta[a]chrysen-9-yl)benzoic acid] | 2.51 nM
